Columns and labels:
ABUTH [1] = assay: Pre-emergence herbicidal action against ABUTH; format: in vivo, Abutilon theophrasti
How it was run: (§1)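 Greenhouse pots of sandy loam held seeds covered with soil, onto which the compound was applied before emergence. An aqueous suspension or emulsion of WP or EC was used at 600 to 800 l/ha with 0.2% wetting agent. Percent damage was judged visually at 3 weeks.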

ALOMY [2] = assay: Pre-emergence herbicidal action against ALOMY; format: in vivo, Alopecurus myosuroides
How it was run: as §1

AMARE [3] = assay: Pre-emergence herbicidal action against AMARE; format: in vivo, Amaranthus retroflexus
How it was run: as §1

AVEFA [4] = assay: Pre-emergence herbicidal action against AVEFA; format: in vivo, Avena fatua; conditions: 80 g/ha, pre-emergence
How it was run: as §1

ECHCG [5] = assay: Pre-emergence herbicidal action against ECHCG; format: in vivo, Echinochloa crus-galli
How it was run: as §1

LOLRI = assay: Pre-emergence herbicidal action against LOLRI; format: in vivo, Lolium rigidum; conditions: 80 g/ha
How it was run: as §1

MATIN [6] = assay: Pre-emergence herbicidal action against MATIN; format: in vivo, Matricaria inodora
How it was run: as §1

PHBPU [7] = assay: Pre-emergence herbicidal action against PHBPU; format: in vivo, Pharbitis purpurea; conditions: dosage 80 g/ha
How it was run: as §1

POLCO = assay: Pre-emergence herbicidal action against POLCO; format: in vivo, Polygonum convolvulus; conditions: dosage 80 g/ha
How it was run: as §1

SETVI [8] = assay: Pre-emergence herbicidal action against SETVI; format: in vivo, Setaria viridis
How it was run: as §1

VERPE [9] = assay: Pre-emergence herbicidal action against VERPE; format: in vivo, Veronica persica; conditions: dosage 80 g/ha
How it was run: as §1

VIOTR [10] = assay: Pre-emergence herbicidal action against VIOTR; format: in vivo, Viola tricolor
How it was run: as §1

DIGSA [11] = assay: Pre-emergence herbicidal action against DIGSA; format: in vivo, Digitaria sanguinalis
How it was run: as §1

ABUTH [12] = assay: Post-emergence herbicidal action against ABUTH; format: in vivo, Abutilon theophrasti; conditions: dosage 20 g/ha, visual assessment about 3 weeks after treatment vs untreated controls
How it was run: (§2)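 A WP or EC formulation diluted in water with 0.2% wetting agent was sprayed at 600 to 800 l/ha onto one-leaf-stage plants grown in sandy loam. About 3 weeks later, action was rated visually in percent, 100% being dead plants.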

ALOMY [13] = assay: Post-emergence herbicidal action against ALOMY; format: in vivo, Alopecurus myosuroides; conditions: visual assessment about 3 weeks after treatment vs untreated controls
How it was run: as §2

AMARE [14] = assay: Post-emergence herbicidal action against AMARE; format: in vivo, Amaranthus retroflexus; conditions: 20 g/ha, visual assessment about 3 weeks after treatment, 100% = plants have died, 0% = like control plants
How it was run: as §2

AVEFA [15] = assay: Post-emergence herbicidal action against AVEFA; format: in vivo, Avena fatua; conditions: visual assessment about 3 weeks after treatment, 100% = plants have died, 0% = like control plants
How it was run: as §2

ECHCG [16] = assay: Post-emergence herbicidal action against ECHCG; format: in vivo, Echinochloa crus-galli; conditions: dosage 20 g/ha
How it was run: as §2

MATIN [17] = assay: Post-emergence herbicidal action against MATIN; format: in vivo, Matricaria inodora; conditions: dosage 20 g/ha
How it was run: as §2

PHBPU [18] = assay: Post-emergence herbicidal action against PHBPU; format: in vivo, Pharbitis purpurea; conditions: dosage 20 g/ha
How it was run: as §2

SETVI [19] = assay: Post-emergence herbicidal action against SETVI; format: in vivo, Setaria viridis; conditions: dosage 20 g/ha
How it was run: as §2

VERPE [20] = assay: Post-emergence herbicidal action against VERPE; format: in vivo, Veronica persica
How it was run: as §2

VIOTR [21] = assay: Post-emergence herbicidal action against VIOTR; format: in vivo, Viola tricolor
How it was run: as §2

DIGSA [22] = assay: Post-emergence herbicidal action against DIGSA; format: in vivo, Digitaria sanguinalis; conditions: 20 g/ha
How it was run: as §2

[23] = 80 g/ha, scored visually after 3 weeks vs untreated controls (100% = plants have died, 0% = like control plants)

Cn1nnnc1NC(=O)c1ccc(C(F)(F)F)c(C(=O)NCC2CC2)c1Cl [Example 1-132]
Pre-emergence action against ABUTH (herbicidal activity) (ABUTH [1]; [23]): 100% | Pre-emergence action against ABUTH (herbicidal activity in percent) (ABUTH [1]; dosage 20 g/ha, scored visually after 3 weeks vs untreated controls, 100% = plants have died, 0% = like control plants): 100% | Pre-emergence action against ALOMY (ALOMY [2]; 20 g/ha, scored visually after 3 weeks, 100% = plants have died, 0% = like control plants): 80% | Pre-emergence action against ALOMY (herbicidal activity) (ALOMY [2]; 80 g/ha, pre-emergence, scored visually after 3 weeks vs untreated controls (100% = plants have died, 0% = like control plants)): 100% | Pre-emergence action against AMARE in % (AMARE [3]; 20 g/ha, scored visually after 3 weeks vs untreated controls, 100% = plants have died, 0% = like control plants): 100% | Pre-emergence action against AMARE in % (AMARE [3]; [23]): 100% | Pre-emergence action against AVEFA in % (AVEFA [4]): 100% | Pre-emergence action against ECHCG in % (ECHCG [5]; 20 g/ha): 90% | Pre-emergence action against ECHCG in % (ECHCG [5]; 80 g/ha): 100% | Pre-emergence action against LOLRI in % (LOLRI): 80% | Pre-emergence action against MATIN in % (MATIN [6]; dosage 20 g/ha): 100% | Pre-emergence action against MATIN in % (MATIN [6]; dosage 80 g/ha): 100% | Pre-emergence action against PHBPU in % (PHBPU [7]): 80% | Pre-emergence action against POLCO in % (POLCO): 80% | Pre-emergence action against SETVI in % (SETVI [8]; dosage 20 g/ha): 80% | Pre-emergence action against SETVI in % (SETVI [8]; dosage 80 g/ha): 100% | Pre-emergence action against VERPE in % (VERPE [9]): 100% | Pre-emergence action against VIOTR in % (VIOTR [10]; dosage 20 g/ha): 100% | Pre-emergence action against VIOTR in % (VIOTR [10]; dosage 80 g/ha): 100% | Pre-emergence action against DIGSA in % (DIGSA [11]; dosage 20 g/ha): 100% | Pre-emergence action against DIGSA in % (DIGSA [11]; dosage 80 g/ha): 100% | Post-emergence action against ABUTH in % (ABUTH [12]): 80% | Post-emergence action against ALOMY in % (ALOMY [13]; dosage 5 g/ha): 80% | Post-emergence action against ALOMY in % (ALOMY [13]; dosage 20 g/ha): 90% | Post-emergence action at 20 g/ha against AMARE in % (AMARE [14]): 100% | Post-emergence action at 5 g/ha against AVEFA in % (AVEFA [15]; 5 g/ha): 80% | Post-emergence action at 20 g/ha against AVEFA in % (AVEFA [15]; 20 g/ha): 90% | Post-emergence action against ECHCG in % (ECHCG [16]): 90% | Post-emergence action against MATIN in % (MATIN [17]): 80% | Post-emergence action against PHBPU in % (PHBPU [18]): 90% | Post-emergence action against SETVI in % (SETVI [19]): 90% | Post-emergence action against VERPE in % (VERPE [20]; 5 g/ha): 90% | Post-emergence action against VERPE in % (VERPE [20]; 20 g/ha): 90% | Post-emergence action against VIOTR in % (VIOTR [21]; 5 g/ha): 80% | Post-emergence action against VIOTR in % (VIOTR [21]; 20 g/ha): 90% | Post-emergence action against DIGSA (DIGSA [22]): 90%
